Results reported in US20190216779A1, “USE OF NEUROKININ-1 ANTAGONISTS TO TREAT A VARIETY OF PRURITIC CONDITIONS” (MENLO THERAPEUTICS INC., priority 2016, published 2019).

Legend:
[1] = cited from earlier work
[2] = tested on: subjects with chronic pruritus and prurigo nodularis; assay: Phase II randomized, double-blind, placebo-controlled clinical study of serlopitant in chronic pruritus due to prurigo nodularis; assay type: in vivo, human; conditions: for Mean difference Serlopitant − Placebo (SE) in change of average itch VAS score from baseline by repeated measures analysis: 5 mg once daily oral, 10 cm VAS
Protocol: A well-controlled human clinical trial assessing the efficacy of serlopitant in the treatment of pruritus associated with prurigo nodularis (PN) was approved by an Institutional Review Board and was conducted in accordance with the ICH Guidelines for Good Clinical Practices. German regulations on recordkeeping of subject information, and any local regulatory requirements. The study was a Phase II randomized, double-blind, placebo-controlled, multicenter trial designed to evaluate the efficacy and safety of serlopitant versus placebo in subjects with PN. […] The subjects had chronic pruritus due to PN.
Subjects were randomized to receive either a 5-mg tablet of serlopitant or a matching placebo tablet. Subjects took a tablet of serlopitant or placebo once daily by mouth for 8 weeks following a loading dose of 3 tablets on the first day of treatment. The maximum study duration for each subject was about 14 weeks and included a screening period of up to 4 weeks, a treatment period of 8 weeks, and a follow-up period of 2 weeks.
At Baseline, the average itch VAS score (average itch over the past 24 hours) for the serlopitant group and the placebo group was 7.88 and 7.92, respectively. […] Furthermore, a once-daily 5 mg dose of serlopitant led to a 4-point responder rate (the proportion of subjects achieving ≥4-point improvement on a 10-point scale) of 54% with respect to the average itch VAS score at Week 8 compared to 25% for placebo.

[3] = Solubility test of serlopitant in Franz cell receptor solution; assay type: physicochemical
[4] = In vitro skin permeation of serlopitant in topical formulations, Franz diffusion cell; assay type: in vitro ADME; conditions: topical formulations B and C, human skin, 37° C., LC-MS/MS
Protocol: In vitro skin permeation of serlopitant in topical formulations A-D was evaluated using a Franz diffusion cell. FIG. 1 illustrates a Franz diffusion cell. A Franz diffusion cell having a circular permeation area of 4.15 cm^2 and a receptor chamber volume of 19 mL was set up with a thermo-regulated outer water jacket to maintain the temperature at 37° C. The receptor chamber was filled with 19 mL 1×PBS (pH 7.5) containing 10% ethanol and 1% Tween® 80.
Human skin was pre-treated to remove all subcutaneous fat and was cleaned with 70% ethanol before use. The skin was visually inspected to ensure that it was free of any surface irregularity or small holes and was equally divided into four pieces. The skin was then mounted onto the receptor chamber with the stratum corneum side facing up. […]
All samples were processed by solid-phase extraction (SPE) before LC-MS/MS analysis. […] Serlopitant concentrations in samples resulting from formulations A-D were determined by comparison to the standard. Serlopitant was not detected in samples resulting from topical formulations A and D, as expected. […] After an initial lag, serlopitant was detected by LC-MS/MS in the receptor chamber at 6 hours.
The amount of serlopitant retained in the skin was determined at the end of the experiment. […] Extracted serlopitant was quantified by LC-MS/MS. […]

[5] = tested on: subjects with chronic pruritus; assay: Phase II randomized, double-blind, placebo-controlled clinical study of serlopitant in chronic pruritus; assay type: in vivo, human; conditions: for 4-point responder rate (proportion of subjects achieving ≥4-point improvement on a 10-point scale) in the average VAS itch score: Week 6, placebo 26%; for relief of itch in the NRS score compared to placebo (secondary efficacy endpoint; data not shown) / relief of itch in the VAS score compared to placebo (primary efficacy endpoint): Weeks 4, 5 and 6
Protocol: A well-controlled human clinical trial assessing the efficacy of serlopitant in the treatment of chronic pruritus was approved by an Institutional Review Board and was conducted in accordance with the International Conference on Harmonisation (ICH) Guidelines for Good Clinical Practices, the U.S. Code of Federal Regulations, the Health Insurance Portability and Accountability Act (HIPAA), and any local regulatory requirements. The study was a Phase II randomized, double-blind, parallel-group, placebo-controlled, multicenter trial designed to evaluate the efficacy and safety of serlopitant versus placebo in subjects with chronic pruritus.
Subjects were randomized to receive a 0.25 mg, 1 mg or 5 mg tablet of serlopitant or a matching placebo tablet. Subjects took one tablet of serlopitant or placebo once daily by mouth for a total of 6 weeks following a loading dose of 3 tablets on the first day of treatment. The maximum study duration for each subject was about 12 weeks and included a screening period of up to 2 weeks, a treatment period of 6 weeks, and a follow-up period of 4 weeks. The screening period was extended up to 44 days if a washout period from any prohibited medications was required.

[6] = all three doses (0.25 mg, 1 mg, 5 mg once daily, 6 weeks)

## C[C@@H](O[C@H]1CC[C@@H]2CN(C3=CC(=O)CC3)C[C@H]2[C@@H]1c1ccc(F)cc1)c1cc(C(F)(F)F)cc(C(F)(F)F)c1 [Form I]
[1]; Form I compared with Form II
  thermodynamic stability of polymorph: thermodynamically more stable below 70 °C
[1]; all tested relative humidity conditions
  hygroscopicity: non-hygroscopic

## C[C@@H](O[C@H]1CC[C@@H]2CN(C3=CC(=O)CC3)C[C@H]2[C@@H]1c1ccc(F)cc1)c1cc(C(F)(F)F)cc(C(F)(F)F)c1 [serlopitant, 3-[(3aR,4R,5S,7aS)-5-[(1R)-1-[3,5-bis(trifluoromethyl)phenyl]ethoxy]-4-(4-fluorophenyl)octahydro-2H-isoindol-2-yl]cyclopent-2-en-1-one]
[2]; Week 2, 95% CI (−1.5, −0.2), p 0.0111
  Mean difference Serlopitant − Placebo (SE) in change of average itch VAS score from baseline by repeated measures analysis: −0.9 (0.34)
[2]; Week 4, 95% CI (−1.8, −0.1), p 0.0248
  Mean difference Serlopitant − Placebo (SE) in change of average itch VAS score from baseline by repeated measures analysis: −1.0 (0.43)
[2]; Week 8, 95% CI (−2.6, −0.7), p 0.0005
  Mean difference Serlopitant − Placebo (SE) in change of average itch VAS score from baseline by repeated measures analysis: −1.7 (0.47)
[2]; 5 mg once daily, 8 weeks
  adverse event diarrhea (most common adverse events): 11%
  adverse event nasopharyngitis (most common adverse events): 17%
  intensity of treatment-emergent adverse events: generally mild or moderate
  tolerability and safety: well tolerated and safe
[2]; once-daily 5 mg dose
  improvement in pruritus on the IGA vs placebo: greater improvement
[2]; once-daily 5 mg dose, Week 8, placebo 25%
  4-point responder rate with respect to the average itch VAS score: 54%
[2]; once-daily 5 mg dose, Week 8, placebo 26%
  4-point responder rate with respect to the worst itch NRS score: 47%
[2]; once-daily 5 mg dose, Week 8, placebo 28.9%
  proportion of subjects reporting “no/mild pruritus” on the VRS: 54.4%
[2]; once-daily 5 mg dose, Week 8, placebo 54.3%
  proportion of subjects reporting improvement in pruritus on the PGA: 82.5%
[2]; once-daily 5 mg dose, Weeks 2, 4, and 8
  decrease in the average itch VAS score from Baseline compared to placebo: statistically significant decrease
[2]; once-daily 5 mg dose, p=0.0024
  improvement in the worst itch VAS score from Baseline to Week 8 vs placebo: statistically significantly, greater improvement
[2]; once-daily 5 mg dose, p=0.0069
  decrease in the average itch NRS score from Baseline to Week 8 vs placebo: statistically significantly greater decrease
[3]; 1×PBS (pH 7.5) containing 10% ethanol and 1% Tween 80, 1 hour of incubation at 37° C.
  solubility in receptor solution: remained soluble at concentrations of 0.5, 5 and 50 ug/mL
[3]; receptor solution without Tween 80
  change of solubility if Tween 80 was not used: decreased significantly
[3]; receptor solution without ethanol
  change of solubility if ethanol was not used: decreased slightly
[4]
  time at which serlopitant was detected in the receptor chamber after an initial lag: 6 h
[5]; 0.25 mg once daily oral, Week 1, n = 64
  Least squares mean % change from baseline in average VAS itch score: −9.1 ± 3.9%
[5]; 0.25 mg once daily oral, Week 2, n = 64
  Least squares mean % change from baseline in average VAS itch score: −14.9 ± 4.0%
[5]; 0.25 mg once daily oral, Week 3, n = 64
  Least squares mean % change from baseline in average VAS itch score: −21.4 ± 4.0%
[5]; 0.25 mg once daily oral, Week 4, n = 64
  Least squares mean % change from baseline in average VAS itch score: −29.0 ± 4.0%
[5]; 0.25 mg once daily oral, Week 5, n = 64
  Least squares mean % change from baseline in average VAS itch score: −32.4 ± 4.0%
[5]; 0.25 mg once daily oral, Week 6, n = 64
  Least squares mean % change from baseline in average VAS itch score: −34.1 ± 4.1%
[5]; 1 mg once daily oral, Week 1, n = 65
  Least squares mean % change from baseline in average VAS itch score: −11.8 ± 3.9%
[5]; 1 mg once daily oral, Week 2, n = 65
  Least squares mean % change from baseline in average VAS itch score: −22.0 ± 4.0%
[5]; 1 mg once daily oral, Week 3, n = 65
  Least squares mean % change from baseline in average VAS itch score: −30.2 ± 4.0%
[5]; 1 mg once daily oral, Week 4, n = 65, p < 0.05 vs placebo
  Least squares mean % change from baseline in average VAS itch score: −33.1 ± 4.0 %
[5]; 1 mg once daily oral, Week 5, n = 65, p < 0.05 vs placebo
  Least squares mean % change from baseline in average VAS itch score: −38.0 ± 4.1 %
[5]; 1 mg once daily oral, Week 6, n = 65, p < 0.05 vs placebo
  Least squares mean % change from baseline in average VAS itch score: −41.4 ± 4.0 %
[5]; 5 mg once daily oral, Week 1, n = 64
  Least squares mean % change from baseline in average VAS itch score: −12.0 ± 3.9%
[5]; 5 mg once daily oral, Week 2, n = 64
  Least squares mean % change from baseline in average VAS itch score: −20.3 ± 4.0%
[5]; 5 mg once daily oral, Week 3, n = 64
  Least squares mean % change from baseline in average VAS itch score: −28.8 ± 4.0%
[5]; 5 mg once daily oral, Week 4, n = 64, p < 0.05 vs placebo
  Least squares mean % change from baseline in average VAS itch score: −34.2 ± 4.0 %
[5]; 5 mg once daily oral, Week 5, n = 64, p < 0.05 vs placebo
  Least squares mean % change from baseline in average VAS itch score: −37.3 ± 4.0 %
[5]; 5 mg once daily oral, Week 6, n = 64, p < 0.05 vs placebo
  Least squares mean % change from baseline in average VAS itch score: −42.5 ± 4.1 %
[5]; [6]
  intensity of all adverse events: mild or moderate intensity
  most common treatment-emergent adverse events: diarrhea, somnolence and headache in the low single-digit percent
  tolerability and safety profile: well tolerated and exhibited an excellent safety profile
[5]; once-daily 1 mg dose
  4-point responder rate (proportion of subjects achieving ≥4-point improvement on a 10-point scale) in the average VAS itch score: 42%
  relief of itch in the NRS score compared to placebo (secondary efficacy endpoint; data not shown): statistically significant improvement in relief of itch
  relief of itch in the VAS score compared to placebo (primary efficacy endpoint): statistically significant improvement in relief of itch
[5]; once-daily 5 mg dose
  4-point responder rate (proportion of subjects achieving ≥4-point improvement on a 10-point scale) in the average VAS itch score: 53%
  relief of itch in the NRS score compared to placebo (secondary efficacy endpoint; data not shown): statistically significant improvement in relief of itch
  relief of itch in the VAS score compared to placebo (primary efficacy endpoint): statistically significant improvement in relief of itch
